These results are taken from PubChem BioAssay (NCI).

SMILES strings stand for the structures. “And” between values parts separate entries of the source, which are not always exact repeats. Equal entries are not always repeated.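 48-hour exposure; five concentrations; linearly interpolated endpoints. GI50 = concentration required for 50% inhibition of growth. TGI: total growth inhibition.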

One assay concerns HL-60(TB) leukemia. Kind of assay: NCI tumour cell line growth inhibition, 48 h.
Turning to `O=c1cc(CNc2cc(F)cc(F)c2)c2ccc(I)cc2[nH]1`, the GI50 is 0.337 µM and the TGI was over 51.1 µM.
For the compound `CCCN(Cc1ccc(F)cc1)c1ccc(CO)c(Cl)c1`, the GI50 was 3.27 µM and the TGI turned out to be 19.2 µM.
With `CC[C@](C)(O)C(=O)O[C@H]1C(=O)O[C@@H]2C[C@H]3C(C)=CC(=O)[C@@H](O)[C@]3(C)[C@H]3[C@@]4(O)OC[C@]32[C@@H]1[C@@H](C)[C@H]4O`, the GI50 is 0.104 µM; the TGI is 4.11 µM and 1.09 µM.
For the compound `NC(=O)[C@H]1CCN(c2ncnc(N)c2F)C[C@@H]1N1CCC[C@@H](Nc2cc(Cl)cc(C(F)(F)F)c2)C1=O`, the GI50 was 20.5 µM and the TGI worked out at 42.5 µM.
Regarding `CCN(CC)c1ccc(/C=C/c2cc(C)c3ccccc3n2)cc1`, the GI50 was 3.42 µM and the TGI is 27.8 µM.
On to `O=C(CCl)c1ccc([N+](=O)[O-])o1`, for which the GI50 was 1.64 µM.
Compound `Nc1ncnc2c1ccn2C1OC2COP(=O)(O)OC2C1O` (configuration not stated) yielded a TGI of over 23.2 µM.
`Cc1cc(N2CCCCC2)nc(N(CCNc2ccnc3cc(Cl)ccc23)Cc2ccco2)n1`: the GI50 was 1.91 µM and the TGI came out at 3.94 µM.
In turn, `O=C(O)[C@@H]1C2CC([C@@H]1C(=O)O)[C@H](N1C(=O)CCC1=O)[C@@H]2Br` (some centres not stated) returned a TGI of over 100 µM.
As to `CCCN1C(=O)/C(=c2\sc3n(c2=O)C2C(NN=3)N(CC)C(=O)N2CC)c2ccccc21` (configuration not stated), the GI50 is 0.3 µM and the TGI was determined as 1.03 µM.
Regarding `c1ccc2[nH]c(-c3ccc(N4CCN(c5ccc(-c6nc7ccccc7[nH]6)cc5)CC4)cc3)nc2c1`, the GI50 was over 100 µM and the TGI was over 100 µM.
In the case of `CC1(C)CCC2(C(=O)OC3OC(CO)C(O)C(O)C3O)CC[C@]3(C)C(=CCC4C5(C)CC[C@H](OC6OC(C(=O)O)C(O)C(O)C6O)C(C)(C)C5CCC43C)C2C1` (some centres not stated), the GI50 was 1.22 µM and the TGI came to 3.45 µM.
As to `Fc1ccc2[nH]cc(Cc3c[nH]c4ccc(F)cc34)c2c1`, the GI50 is 37.4 µM and the TGI is over 100 µM.
Compound `Cc1ccc(C(=O)Nc2ccc(S(=O)(=O)O)c3cc(S(=O)(=O)O)cc(S(=O)(=O)O)c23)cc1NC(=O)c1cccc(N)c1` had a TGI of over 100 µM.

The test system of a further assay is RXF 393 renal. Kind of assay: NCI tumour cell line growth inhibition, 48 h.
Take `O=c1cc(CNc2cc(F)cc(F)c2)c2ccc(I)cc2[nH]1`: the GI50 is 0.374 µM and the TGI was determined as 38 µM.
On to `CCCN(Cc1ccc(F)cc1)c1ccc(CO)c(Cl)c1`, for which the GI50 is 4.12 µM and the TGI amounted to 16.8 µM.
As for `CC[C@](C)(O)C(=O)O[C@H]1C(=O)O[C@@H]2C[C@H]3C(C)=CC(=O)[C@@H](O)[C@]3(C)[C@H]3[C@@]4(O)OC[C@]32[C@@H]1[C@@H](C)[C@H]4O`, the GI50 was 0.285 µM.
Consider `NC(=O)[C@H]1CCN(c2ncnc(N)c2F)C[C@@H]1N1CCC[C@@H](Nc2cc(Cl)cc(C(F)(F)F)c2)C1=O`, for which the GI50 is 6.01 µM and the TGI was 25.5 µM.
Taken in the same sequence, the figures for `CCN(CC)c1ccc(/C=C/c2cc(C)c3ccccc3n2)cc1` were 3.43 µM and 9.44 µM.
Regarding `O=C(CCl)c1ccc([N+](=O)[O-])o1`, the GI50 is 2.2 µM and the TGI was determined as 8.24 µM.
`Nc1ncnc2c1ccn2C1OC2COP(=O)(O)OC2C1O` (configuration not stated) had a TGI of 5.02 µM.
Turning to `Cc1cc(N2CCCCC2)nc(N(CCNc2ccnc3cc(Cl)ccc23)Cc2ccco2)n1`, the GI50 is 1.56 µM and the TGI was 3.32 µM.
On to `O=C(O)[C@@H]1C2CC([C@@H]1C(=O)O)[C@H](N1C(=O)CCC1=O)[C@@H]2Br` (some centres not stated), for which the TGI is over 100 µM.
With `CCCN1C(=O)/C(=c2\sc3n(c2=O)C2C(NN=3)N(CC)C(=O)N2CC)c2ccccc21` (configuration not stated), the GI50 is 0.277 µM and the TGI was determined as 3.23 µM.
In the case of `c1ccc2[nH]c(-c3ccc(N4CCN(c5ccc(-c6nc7ccccc7[nH]6)cc5)CC4)cc3)nc2c1`, the GI50 is over 100 µM and the TGI was over 100 µM.
`CC1(C)CCC2(C(=O)OC3OC(CO)C(O)C(O)C3O)CC[C@]3(C)C(=CCC4C5(C)CC[C@H](OC6OC(C(=O)O)C(O)C(O)C6O)C(C)(C)C5CCC43C)C2C1` (some centres not stated): the GI50 is 1.65 µM and the TGI was over 50 µM.
As for `O=S(=O)(c1ccc(NC(=S)NCc2cccnc2)cc1)N1CCCCC1`, the GI50 is 72.4 µM and the TGI was over 100 µM.
Taken in the same sequence, the figures for `Fc1ccc2[nH]cc(Cc3c[nH]c4ccc(F)cc34)c2c1` were 18.2 µM and 42.8 µM.
As to `C=C1C(=O)O[C@@H]2C1CC(=O)C(C)CC/C=C(\C)CCC[C@H](C)[C@H]2OC(C)=O` (some centres not stated), the GI50 was 7.9 µM and the TGI amounted to 24.4 µM.
In turn, `Cc1ccc(C(=O)Nc2ccc(S(=O)(=O)O)c3cc(S(=O)(=O)O)cc(S(=O)(=O)O)c23)cc1NC(=O)c1cccc(N)c1` returned a TGI of over 100 µM.

A further assay has as its system HS 578T breast. The experiment in a line: NCI tumour cell line growth inhibition, 48 h.
For the compound `O=c1cc(CNc2cc(F)cc(F)c2)c2ccc(I)cc2[nH]1`, the GI50 is 0.41 µM and the TGI is over 100 µM.
In the case of `CCCN(Cc1ccc(F)cc1)c1ccc(CO)c(Cl)c1`, the GI50 was 14.8 µM and the TGI is 37.6 µM.
In turn, `CC[C@](C)(O)C(=O)O[C@H]1C(=O)O[C@@H]2C[C@H]3C(C)=CC(=O)[C@@H](O)[C@]3(C)[C@H]3[C@@]4(O)OC[C@]32[C@@H]1[C@@H](C)[C@H]4O` came in with a TGI of 4.44 µM.
In the case of `NC(=O)[C@H]1CCN(c2ncnc(N)c2F)C[C@@H]1N1CCC[C@@H](Nc2cc(Cl)cc(C(F)(F)F)c2)C1=O`, the GI50 is 15.5 µM and the TGI is over 100 µM.
Turning to `CCN(CC)c1ccc(/C=C/c2cc(C)c3ccccc3n2)cc1`, the GI50 was 2.09 µM and the TGI was found to be 5.75 µM.
With `O=C(CCl)c1ccc([N+](=O)[O-])o1`, the GI50 was 2.72 µM and the TGI amounted to 8.66 µM.
In turn, `Nc1ncnc2c1ccn2C1OC2COP(=O)(O)OC2C1O` (configuration not stated) yielded a TGI of over 31 µM.
On to `Cc1cc(N2CCCCC2)nc(N(CCNc2ccnc3cc(Cl)ccc23)Cc2ccco2)n1`, for which the GI50 is 2.34 µM and the TGI turned out to be 5.52 µM.
Regarding `O=C(O)[C@@H]1C2CC([C@@H]1C(=O)O)[C@H](N1C(=O)CCC1=O)[C@@H]2Br` (some centres not stated), the TGI is over 100 µM.
